From patent publication US20110288052A1, “NOVEL COMPOUNDS, PHARMACEUTICAL COMPOSITIONS CONTAINING SAME, AND METHODS OF USE FOR SAME” (priority 2008, published 2011)
Values after ≈ are worked out from the molar mass of the structure shown. Where two headings read alike, the source gives them in different places.

Tests used:
[1] = molecular target: T1, Human FAS purified from ZR-75-1 human breast cancer cells (Homo sapiens, UniProt P49327); experiment: FAS enzymatic activity (malonyl-CoA dependent NADPH oxidation); type: biochemical; settings: (SB)
T1 construct: Human FAS was purified from cultured ZR-75-1 human breast cancer cells; endogenous in cells; host or cells: ZR-75-1 human breast cancer cells (ATCC); enzyme purified by hypotonic lysis, PEG precipitation and Mono Q anion exchange
T1 sequence (P49327 2-2511 limits assumed): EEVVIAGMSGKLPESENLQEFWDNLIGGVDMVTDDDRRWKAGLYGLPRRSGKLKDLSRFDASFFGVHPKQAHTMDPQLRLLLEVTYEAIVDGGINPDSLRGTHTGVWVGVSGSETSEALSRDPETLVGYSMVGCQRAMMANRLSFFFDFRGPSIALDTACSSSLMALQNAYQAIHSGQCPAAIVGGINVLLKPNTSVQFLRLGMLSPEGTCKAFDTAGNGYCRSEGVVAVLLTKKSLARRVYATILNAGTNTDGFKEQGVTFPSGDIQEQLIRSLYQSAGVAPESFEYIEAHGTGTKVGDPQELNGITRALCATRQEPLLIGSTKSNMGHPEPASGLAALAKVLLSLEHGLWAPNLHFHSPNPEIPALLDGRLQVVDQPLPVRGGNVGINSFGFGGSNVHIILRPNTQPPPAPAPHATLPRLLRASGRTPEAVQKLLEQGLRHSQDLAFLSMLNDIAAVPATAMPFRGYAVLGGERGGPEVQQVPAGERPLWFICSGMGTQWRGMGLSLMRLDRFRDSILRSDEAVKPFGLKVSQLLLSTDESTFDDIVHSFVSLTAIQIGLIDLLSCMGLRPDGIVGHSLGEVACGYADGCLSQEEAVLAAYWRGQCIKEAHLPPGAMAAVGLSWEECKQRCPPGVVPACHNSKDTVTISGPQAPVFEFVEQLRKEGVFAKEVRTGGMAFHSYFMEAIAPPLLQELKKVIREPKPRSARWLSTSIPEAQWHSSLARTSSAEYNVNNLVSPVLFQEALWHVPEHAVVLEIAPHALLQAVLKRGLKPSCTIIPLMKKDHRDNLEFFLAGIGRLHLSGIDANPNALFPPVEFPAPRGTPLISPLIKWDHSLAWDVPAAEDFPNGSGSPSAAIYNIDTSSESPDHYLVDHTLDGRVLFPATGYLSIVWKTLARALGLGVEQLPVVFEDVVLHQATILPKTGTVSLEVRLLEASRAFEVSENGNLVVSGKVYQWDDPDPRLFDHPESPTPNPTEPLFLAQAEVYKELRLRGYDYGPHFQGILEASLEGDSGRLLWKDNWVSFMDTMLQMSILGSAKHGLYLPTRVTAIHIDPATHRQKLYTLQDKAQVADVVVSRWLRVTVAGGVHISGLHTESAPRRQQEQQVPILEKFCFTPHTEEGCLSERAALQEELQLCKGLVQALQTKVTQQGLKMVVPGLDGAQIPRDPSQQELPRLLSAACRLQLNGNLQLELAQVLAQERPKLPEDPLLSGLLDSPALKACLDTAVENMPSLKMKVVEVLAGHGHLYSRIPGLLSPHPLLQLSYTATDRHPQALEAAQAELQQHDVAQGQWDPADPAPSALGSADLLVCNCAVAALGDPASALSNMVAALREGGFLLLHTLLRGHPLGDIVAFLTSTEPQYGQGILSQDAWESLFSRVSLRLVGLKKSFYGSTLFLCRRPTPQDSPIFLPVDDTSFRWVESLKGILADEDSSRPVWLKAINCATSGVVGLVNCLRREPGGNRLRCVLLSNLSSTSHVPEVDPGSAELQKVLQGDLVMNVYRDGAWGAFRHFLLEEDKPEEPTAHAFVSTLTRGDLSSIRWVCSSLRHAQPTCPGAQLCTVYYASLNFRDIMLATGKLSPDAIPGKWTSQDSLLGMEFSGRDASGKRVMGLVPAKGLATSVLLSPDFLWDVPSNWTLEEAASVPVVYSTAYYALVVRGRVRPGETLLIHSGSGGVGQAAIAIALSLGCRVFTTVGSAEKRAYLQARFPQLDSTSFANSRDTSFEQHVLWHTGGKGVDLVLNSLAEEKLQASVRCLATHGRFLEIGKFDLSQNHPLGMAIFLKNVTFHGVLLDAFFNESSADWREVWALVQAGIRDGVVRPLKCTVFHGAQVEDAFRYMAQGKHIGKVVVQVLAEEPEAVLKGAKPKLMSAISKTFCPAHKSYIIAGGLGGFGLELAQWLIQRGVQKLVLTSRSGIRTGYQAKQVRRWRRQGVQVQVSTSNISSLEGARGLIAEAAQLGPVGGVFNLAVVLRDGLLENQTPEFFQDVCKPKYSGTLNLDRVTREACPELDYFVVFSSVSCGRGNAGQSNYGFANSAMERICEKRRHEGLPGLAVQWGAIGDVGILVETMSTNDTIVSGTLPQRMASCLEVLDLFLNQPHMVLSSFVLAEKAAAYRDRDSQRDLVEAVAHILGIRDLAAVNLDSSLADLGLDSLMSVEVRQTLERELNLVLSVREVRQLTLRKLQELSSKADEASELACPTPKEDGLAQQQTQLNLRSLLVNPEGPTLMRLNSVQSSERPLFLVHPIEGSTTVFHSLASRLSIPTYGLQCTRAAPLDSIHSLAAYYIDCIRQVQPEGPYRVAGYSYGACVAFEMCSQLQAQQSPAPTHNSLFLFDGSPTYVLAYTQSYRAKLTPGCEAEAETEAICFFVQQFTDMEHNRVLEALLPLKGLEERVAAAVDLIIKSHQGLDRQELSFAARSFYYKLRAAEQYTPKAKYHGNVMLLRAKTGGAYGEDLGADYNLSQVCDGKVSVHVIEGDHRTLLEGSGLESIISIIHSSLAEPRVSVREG
Method: Purification of FAS from ZR-75-1 Human Breast Cancer Cells. Human FAS was purified from cultured ZR-75-1 human breast cancer cells obtained from the American Type Culture Collection. The procedure, adapted from Linn et al., 1981, and Kuhajda et al., 1994, utilizes hypotonic lysis, successive polyethyleneglycol (PEG) precipitations, and anion exchange chromatography. ZR-75-1 cells are cultured at 37° C. with 5% CO2 in RPMI culture medium with 10% fetal bovine serum, penicillin and streptomycin.
Ten T150 flasks of confluent cells are lysed with 1.5 ml lysis buffer (20 mM Tris-HCl, pH 7.5, 1 mM EDTA, 0.1 mM phenylmethanesulfonyl fluoride (PMSF), 0.1% Igepal CA-630) and bounce homogenized on ice for 20 strokes. […] FAS protein concentration is determined using the Coomassie Plus Protein Assay Reagent (Pierce) according to manufacturer's specifications using BSA as a standard. […]
Measurement of FAS Enzymatic Activity and Determination of the IC50 of the Compounds FAS activity is measured by monitoring the malonyl-CoA dependent oxidation of NADPH spectrophotometrically at OD340 in 96-well plates (Dils et al and Arslanian et al, 1975). […]
The assay is performed on a Molecular Devices SpectraMax Plus Spectrophotometer. […] The plate is read again as above with the kinetic protocol to measure the malonyl-CoA dependent NADPH oxidation. […]

[2] = system: Staphylococcus aureus (ATCC # 29213); experiment: Broth microdilution antimicrobial assay, S. aureus; type: cell-based
Method: Antimicrobial Properties A broth microdilution assay is used to assess the antimicrobial activity of the compounds. Compounds are tested at twofold serial dilutions, and the concentration that inhibits visible growth (OD600 at 10% of control) is defined as the MIC. Microorganisms tested include Staphylococcus aureus (ATCC # 29213), Enterococcus faecalis (ATCC # 29212), Pseudomonas aerpginosa (ATCC # 27853), and Escherichia coli (ATCC # 25922). The assay is performed in two growth media, Mueller Hinton Broth and Trypticase Soy Broth.
A blood (Tsoy/5% sheep blood) agar plate is inoculated from frozen stocks maintained in T soy broth containing 10% glycerol and incubated overnight at 37° C. Colonies are suspended in sterile broth so that the turbidity matches the turbidity of a 0.5 McFarland standard. The inoculum is diluted 1:10 in sterile broth (Mueller Hinton or Trypticase soy) and 195 μl is dispensed per well of a 96-well plate. The compounds to be tested, dissolved in DMSO, are added to the wells in 5 μl volume at the following concentrations: 25, 12.5, 6.25, 3.125, 1.56 and 0.78 μg/ml in duplicate. Additional concentrations are tested if required. 5 μl of DMSO added to duplicate wells are the vehicle control. Serial dilutions of positive control compounds, vancomycin (E. faecalis and S. aureus) and tobramycin (E. coli and P. aerpginosa), are included in each run.
After 24 hours of incubation at 37° C., plates are read at OD600 on a Molecular Devices SpectraMax Plus Spectrophotometer. Average OD600 values are computed using SOFTmax Pro Software (Molecular Devices) and MIC values are determined by linear regression analysis using Prism version 3.02 (Graph Pad Software, San Diego). The MIC is defined as the concentration of compound required to produce an OD600 reading equivalent to 10% of the vehicle control reading.

[3] = ATCC29213, Mueller Hinton Broth, read-out: SA/MH (MIC)
[4] = ATCC29213, Trypticase Soy Broth, read-out: SA/Tsoy (MIC)

Row | IC50 [1] | MIC [2, 3] | MIC [2, 4] | FAS (IC50) [1] | SMILES
1 | 266 µM | 6 µg/mL (≈ 14.6 µM) | 3 µg/mL (≈ 7.32 µM) |  | CCCCCCCCC1(C)SC(=O)C=C1OCC(=O)Nc1ccc(Cl)cc1 (stereo not drawn)
2 |  |  |  | Neg (SB) | CCCCCCCCC1(C)SC(=O)C=C1OCC(=O)Nc1ccc(Cl)cc1Cl (stereo not drawn)
3 |  | 6 µg/mL (≈ 15.2 µM) | 3 µg/mL (≈ 7.62 µM) |  | CCCCCCCCC1(C)OC(=O)C=C1OCC(=O)Nc1ccc(Cl)cc1 (stereo not drawn)
